Source: paper PMC8197275, “Novel Tdp1 Inhibitors Based on Adamantane Connected with Monoterpene Moieties via Heterocyclic Fragments” (Molecules, 2021)
Where two headings read alike, the source gives them in different places.

Columns and labels:
[1] = Cytotoxicity, EZ4U Cell Proliferation and Cytotoxicity Assay, HeLa; type: cell-based; details: human, HeLa cells, cervical cancer HeLa
Description: (§1) The cytotoxicity of compounds was investigated using HeLa (cervical cancer), SW837 and HCT-116 (colon cancers) cell lines, and the results are shown in Table 1 and Figure S2 in the Supplementary Materials. […] In general, the HeLa cell line was less sensitive to the inhibitors than the HCT-116 and SW837 cells.
(§2) The human cervical cancer HeLa cells were grown in Iscove’s modified Dulbecco’s medium (IMDM) with 40 μg/mL gentamicin, 50 IU/mL penicillin, 50 μg/mL streptomycin (MP Biomedicals), and 10% of fetal bovine serum (Biolot) in a 5% CO2 atmosphere. Human colon adenocarcinoma HCT-116, rectum adenocarcinoma SW837, and human embryo kidney HEK293A cell lines were cultured in DMEM medium (Invitrogen) supplemented with 10% fetal bovine serum (FBS) (Invitrogen), penicillin (100 units/mL), and streptomycin (100 μg/mL), at 37 °C, 5% CO2 in a humid atmosphere. After the formation of a 30–50% monolayer, the tested compounds were added to the medium. The volume of the added reagents was 1/100 of the total volume of the culture medium, and the amount of DMSO was 1% of the final volume. Control cells were grown in the presence of 1% DMSO. The cell culture was monitored for 3 days.
(§3) The cytotoxicity of the compounds to HeLa and HEK293A cell lines was examined using the EZ4U Cell Proliferation and Cytotoxicity Assay (Biomedica, Austria), according to the manufacturer’s protocols.

[2] = Cytotoxicity, MTT test, HCT-116; type: cell-based; details: human, HCT-116 cells; colorectal HCT-116, 72 h MTT
Description: as §1, §2
(§4) The medium was removed, and the dark blue crystals of formazan were dissolved in 100 μL of isopropanol. The absorbance at 570 nm (peak) and 620 nm (baseline) was determined using a microplate reader Multiscan FC (Thermo Fisher Scientific Corporation). All concentrations were performed in triplicate. The values are given as mean ± standard deviation (S.D.) values, and all measurements were repeated three times.

[3] = Cytotoxicity, MTT test, SW837; type: cell-based; details: human, SW837 cells; colorectal SW837, 72 h MTT
Description: as §1, §2, §4

HeLa cells = experiment: Sensitizing of HeLa cells to topotecan by Tdp1 inhibitors; type: cell-based, human; details: for HeLa CC50 of topotecan with Tdp1 inhibitor: human, 3 days, 5 µM
Description: (§5) The potential for sensitizing the cancer cell lines to topotecan using the Tdp1 inhibitors was investigated using the MTT assay. Neutralizing the enzymatic activity of Tdp1 by blocking access to its catalytic site using a small molecule should sensitize the cytotoxic potential of topotecan, since the complex of Top1 with DNA cannot be unraveled. […] Nontoxic concentrations of the adamantane derivatives (5 μM) were used for the HeLa cell line; the dose response for topotecan was measured and the corresponding CC50 values were derived, and the results are shown in Figure 4 for 20c and in Table 2 for all the derivatives.
(§6) For HeLa cells, increased cytotoxicity was seen when the adamantanes and topotecan were combined. […] The combination index (CI) for different concentrations of topotecan and 20c at 5 μM was in the range 0.49–0.82, and at 10 μM of 20c, it was 0.23–0.78. This indicates a synergistic effect of topotecan and 20c. The CI values were calculated with the CompuSyn version 1.0 software. For the HCT-116 cells, the synergistic effects of the compounds were different than for the HeLa cells. […] The CI plot at a different fraction affected (Fa) was determined for topotecan (5, 15, 150, 500 and 1500 nM) and 20g (1, 3, 10, 20 μM). The CI values for most of the combinations correspond to a synergistic effect (CI < 1, see Figure S3 in the Supplementary Materials).
as §2, §3

HCT-116 cells = experiment: Sensitizing of HCT-116 cells to topotecan by Tdp1 inhibitors; type: cell-based, human; details: for HCT116 CC50 of topotecan with Tdp1 inhibitor: human, 72 h
Description: as §5, §6, §2, §4

Tdp1 [4] = biological target: T1, Tdp1 (Homo sapiens, UniProt Q9NUW8); experiment: Tdp1 cleavage activity, fluorophore quencher-coupled DNA-biosensor, real-time; type: biochemical; set-up: inferred from the pET 16B vector and Ni-chelating resin purification; made in house; details: recombinant Tdp1 1.5 nM, 50 nM biosensor; read-out: IC50 (Tdp1 activity inhibition at 50%)
T1 sequence (Q9NUW8 whole entry): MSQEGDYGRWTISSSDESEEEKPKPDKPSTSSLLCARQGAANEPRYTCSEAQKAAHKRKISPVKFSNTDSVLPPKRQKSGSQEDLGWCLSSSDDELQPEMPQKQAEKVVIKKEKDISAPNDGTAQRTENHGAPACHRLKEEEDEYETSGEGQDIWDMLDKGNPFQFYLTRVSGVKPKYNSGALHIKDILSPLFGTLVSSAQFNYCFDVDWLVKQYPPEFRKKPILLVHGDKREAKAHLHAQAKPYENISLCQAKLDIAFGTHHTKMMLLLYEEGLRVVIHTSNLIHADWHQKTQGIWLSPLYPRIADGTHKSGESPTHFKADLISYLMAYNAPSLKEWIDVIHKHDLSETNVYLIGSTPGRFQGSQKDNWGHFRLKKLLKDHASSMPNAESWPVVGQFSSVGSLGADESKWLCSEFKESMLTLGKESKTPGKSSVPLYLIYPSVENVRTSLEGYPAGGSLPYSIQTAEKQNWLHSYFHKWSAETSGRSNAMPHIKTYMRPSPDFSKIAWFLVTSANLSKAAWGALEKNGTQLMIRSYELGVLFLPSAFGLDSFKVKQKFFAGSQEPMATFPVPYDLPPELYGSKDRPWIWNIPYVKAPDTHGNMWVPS
Description: The recombinant Tdp1 was purified to homogeneity by chromatography on Ni-chelating resin and phosphocellulose P11 as described, using plasmid pET 16B-Tdp1, kindly provided by Dr. K.W. Caldecott (University of Sussex, United Kingdom). Tdp1 activity was detected as described in the work. Briefly, we measured the fluorescence intensity after quencher removal from a fluorophore quencher–coupled DNA oligonucleotide catalyzed by Tdp1. The reaction was carried out at different concentrations of inhibitors. The control samples contained 1% DMSO. The reaction mixtures contained Tdp1 buffer (50 mM Tris-HCl pH 8.0, 50 mM NaCl, and 7 mM β-mercaptoethanol), 50 nM biosensor, and an inhibitor being tested. The reaction was started by the addition of purified Tdp1 (1.5 nM). The biosensor (5′-[FAM] AAC GTC AGGGTC TTC C [BHQ]-3′) was synthesized in the Laboratory of Biomedical Chemistry at the Institute of Chemical Biology and Fundamental Medicine (Novosibirsk, Russia).
The reactions were incubated on a POLARstar OPTIMA fluorimeter (BMG LAB-TECH, GmbH) to measure fluorescence every 55 s (ex. 485 nm/em. 520 nm) during the linear phase (here, data are from minute 0 to minute 8). The values of IC50 were determined using a six-point concentration response curve in a minimum of three independent experiments, and were calculated using MARS Data Analysis 2.0 (BMG LABTECH).

[5] = Solubility remark during biological testing; type: physicochemical; details: remark in words
Tdp1 [6] = biological target: T1, Tdp1; set-up: inferred from the pET 16B vector and Ni-chelating resin purification; made in house; details: cited from earlier work

| Compound | CC50 at 3 days [1] | CC50 at 72 h [2] | CC50 at 72 h [3] | HeLa CC50 of topotecan with Tdp1 inhibitor (HeLa cells) | IC50 (Tdp1 [4]) | also measured |
| --- | --- | --- | --- | --- | --- | --- |
| CC(C)CCCC(C)CCSc1n[nH]c(C23CC4CC(CC(C4)C2)C3)n1 (centres unmarked) [20a, 5-(Adamantan-1-yl)-3-((3,7-dimethyloctyl)thio)-1H-1,2,4-triazole] | 85 ± 23 µM | 27 ± 6 µM | 52 ± 6 µM | 4.5 µM | 0.54 ± 0.09 µM | HCT116 CC50 of topotecan with Tdp1 inhibitor (HCT-116 cells; 20 µM): 650.0 (20) nM |
| CC(C)=CCC[C@H](C)CCSc1n[nH]c(C23CC4CC(CC(C4)C2)C3)n1 [20b, 5-(Adamantan-1-yl)-3-(((S)-3,7-dimethyloct-6-en-1-yl)thio)-1H-1,2,4-triazole] | > 100 µM | > 100 µM | 41 ± 4 µM | – | 1.5 ± 0.3 µM | HCT116 CC50 of topotecan with Tdp1 inhibitor (HCT-116 cells; 20 µM): 575.3 (20) nM |
| CC(C)=CCC/C(C)=C\CSc1n[nH]c(C23CC4CC(CC(C4)C2)C3)n1 [20d, 5-(Adamantan-1-yl)-3-(((Z)-3,7-dimethylocta-2,6-dien-1-yl)thio)-1H-1,2,4-triazole] | 31 ± 11 µM | 20 ± 9 µM | 17 ± 5 µM | 5.4 µM | 5.6 ± 0.6 µM | HCT116 CC50 of topotecan with Tdp1 inhibitor (HCT-116 cells; 15 µM): 689.0 (15) nM |
| C=C(C)[C@@H]1CC=C(CSc2n[nH]c(C34CC5CC(CC(C5)C3)C4)n2)CC1 [20e, 5-(Adamantan-1-yl)-3-((((S)-4-(prop-1-en-2-yl)cyclohex-1-en-1-yl)methyl)thio)-1H-1,2,4-triazole] | 24 ± 16 µM | 15 ± 5 µM | 40 ± 4 µM | – | 6.2 ± 2.2 µM | HCT116 CC50 of topotecan with Tdp1 inhibitor (HCT-116 cells; 15 µM): 392.0 (15) nM |
| CC1(C)[C@H]2CC=C(CSc3n[nH]c(C45CC6CC(CC(C6)C4)C5)n3)[C@@H]1C2 [20f, 5-(Adamantan-1-yl)-3-((((1R,5S)-6,6-dimethylbicyclo[3.1.1]hept-2-en-2-yl)methyl)thio)-1H-1,2,4-triazole] | 15 ± 2 µM | 54 ± 5 µM | 46 ± 6 µM | 2.8 µM | 7.5 ± 1.8 µM | HCT116 CC50 of topotecan with Tdp1 inhibitor (HCT-116 cells; 25 µM): 715.0 (25) nM |
| CC(C)CCCC(C)CC(=O)Nc1nnc(C23CC4CC(CC(C4)C2)C3)s1 (centres unmarked) [25a, N-(5-(Adamantan-1-yl)-1,3,4-thiadiazol-2-yl)-3,7-dimethyloctanamide] | > 100 µM | > 100 µM | > 100 µM | 4.9 µM | 0.35 ± 0.05 µM | HCT116 CC50 of topotecan with Tdp1 inhibitor (HCT-116 cells; 45 µM): 455.7 (45) nM |
| CC(C)=CCCC(C)CC(=O)Nc1nnc(C23CC4CC(CC(C4)C2)C3)s1 (centres unmarked) [25b, N-(5-(Adamantan-1-yl)-1,3,4-thiadiazol-2-yl)-3,7-dimethyloct-6-enamide] | > 100 µM | 66 ± 6 µM | 83 ± 8 µM | 2.9 µM | 2.59 ± 0.48 µM | HCT116 CC50 of topotecan with Tdp1 inhibitor (HCT-116 cells; 20 µM): 611.9 (20) nM; solubility [5]: poor solubility |
| CC1(C)[C@H]2CC=C(C(=O)Nc3nnc(C45CC6CC(CC(C6)C4)C5)s3)[C@@H]1C2 [25c, (1R,5S)-N-(5-(Adamantan-1-yl)-1,3,4-thiadiazol-2-yl)-6,6-dimethylbicyclo[3.1.1]hept-2-ene-2-carboxamide] | > 100 µM | > 100 µM | > 100 µM | 3.6 µM | 0.45 ± 0.09 µM | HCT116 CC50 of topotecan with Tdp1 inhibitor (HCT-116 cells; 25 µM): 486.0 (25) nM |
| C=C(C)[C@@H]1CC=C(C(=O)Nc2nnc(C34CC5CC(CC(C5)C3)C4)s2)CC1 [25d, (S)-N-(5-(adamantan-1-yl)-1,3,4-thiadiazol-2-yl)-4-(prop-1-en-2-yl)cyclohex-1-ene-1-carboxamide] | – | – | – | – | – | solubility [5]: poor solubility; melting point: 265.6 °C |
| CC(C)CCCC(C)CC(=O)NC12CC3CC(CC(C3)C1)C2 (centres unmarked) [26a, N-(Adamantan-1-yl)-3,7-dimethyloctanamide] | – | – | – | – | > 15 µM | melting point: 97.9 °C |
| CC1(C)[C@H]2CC=C(C(=O)NC34CC5CC(CC(C5)C3)C4)[C@@H]1C2 [26c, reference compound] | – | – | – | – | > 15 µM | – |
| CC(C)CCCC(C)CCNC(=O)C12CC3CC(CC(C3)C1)C2 (centres unmarked) [28a, reference compound] | – | – | – | – | > 15 µM | – |
| CC1(C)[C@H]2CC=C(CCNC(=O)C34CC5CC(CC(C5)C3)C4)[C@@H]1C2 [28g, reference compound] | – | – | – | – | > 15 µM | – |
| CC[C@@]1(O)C(=O)OCc2c1cc1n(c2=O)Cc2cc3c(CN(C)C)c(O)ccc3nc2-1 [Topotecan, topotecan, reference compound] | – | – | – | – | – | CC50 (HeLa cells; Homo sapiens, HeLa, topotecan alone): 6 µM; CC50 (HCT-116 cells; Homo sapiens, HCT-116, topotecan alone, read-out: HCT116 CC50 of topotecan): 0.715 µM |
| CC(C)=CCCC(C)CC1N2CC3(C)CN1CC(C)(C2)C3=O (centres unmarked) [compound 3] | – | – | – | – | – | IC50 (Tdp1 [6]): ~15 µM |
| C[C@@H]1CC[C@@H]2[C@@H](C1)O[C@@H](c1ccc(NC(=O)c3cccc4ccccc34)s1)C[C@]2(C)O [compound 5] | – | – | – | – | – | IC50 (Tdp1 [6]): 2 µM |
| C[C@@H]1CC[C@@H]2[C@@H](C1)O[C@@H](c1ccc(NC(=O)C34CC5CC(CC(C5)C3)C4)s1)C[C@]2(C)O [compound 13] | – | – | – | – | – | IC50 (Tdp1 [6]): 1.2 µM |
